We go through 20 molecules from patent publication US8679514B2, “Fungicidal mixtures based on azolopyrimidinylamines” (BASF SE, priority 2005, dated 2014).

The test system of assay [1] is Phytophthora infestans. The assay is described as follows: whole plant or invertebrate. The settings on record: 144 h, read-out: Efficacy in % of the untreated control. The format is in vivo.
For assay [2], the system named is Plasmopara viticola. In words: whole plant or invertebrate. The class given is in vivo. The settings on record: read-out: Observed activity (%).
The test system of assay [3] is Phytophthora infestans. The assay is described as follows: microbe, parasite or virus in culture. The format is cell-based. Particulars: for inhibition at 0.25 µg/mL / inhibition at 1 µg/mL / inhibition at […] / inhibition at 0.016 µg/mL: Phytophthora infestans, read-out: Observed activity (%).
In the next assay the test system is Botrytis cinerea. The assay is described as follows: Activity against the gray mold pathogen Botrytis cinerea in the microtiter test. The class given is cell-based. Particulars: Botrytis cinerea, single active compound, read-out: Observed activity (%); for inhibition at […]: Conc. 0.063 mg/l; for inhibition at 1 µg/mL: Conc. 1 mg/l; for inhibition at 16 µg/mL: Conc. 16 mg/l; for inhibition at 0.25 µg/mL: Conc. 0.25 mg/l.

The next assay deals with Pyricularia oryzae. In words: microbe, parasite or virus in culture. The format is cell-based. The settings on record: Pyricularia oryzae, read-out: Observed activity (%).
Assay [4] concerns Phytophthora infestans. In words: whole plant or invertebrate. The format is in vivo. Particulars: for Observed activity (%): in vivo.
Assay [5] has as its system Plasmopara viticola. In words: whole plant or invertebrate. The class given is in vivo. The settings on record: read-out: Observed activity (%). The source holds these as a separate data set.
For the next assay, the system named is Septoria tritici. The assay is described as follows: Activity against the speckled leaf blotch pathogen Septoria tritici in the microtiter test. The class given is cell-based. Particulars: single active compound.

Read-outs that look alike come from different tables or passages of the source.

Take `COc1ccc(C(=CC(=O)N2CCOCC2)c2ccc(Cl)cc2)cc1OC` [dimethomorph, 3-(4-chlorophenyl)-3-(3,4-dimethoxyphenyl)-1-morpholin-4-ylpropenone, reference compound]: in the assay on Phytophthora infestans [1], the pest or weed control at 4 ppm is 33%. In addition, the inhibition at 16 µg/mL in the assay with Plasmopara viticola [2] amounted to 67%.
For the molecule `Cc1nc2ncnn2c(N)c1-c1ccc(C(C)(C)C)cc1` [Compound I-18, 6-(4-tert-butylphenyl)-5-methyl-[1,2,4]triazolo[1,5-a]pyrimidin-7-ylamine], in the assay on Phytophthora infestans [1], the pest or weed control at 16 ppm came to 11%. Also, in the assay on Phytophthora infestans [3], the inhibition at 0.25 µg/mL is 16%, the inhibition at 1 µg/mL came to 45% and the inhibition at […] was 6%. Moreover, in the assay on Botrytis cinerea, the inhibition at […] worked out at 6%, the inhibition at 1 µg/mL is 8% and the inhibition at 16 µg/mL was determined as 11%. In the assay on Pyricularia oryzae, the inhibition at 0.25 µg/mL stood at 15%, the inhibition at 1 µg/mL was 15%, the inhibition at 4 µg/mL was found to be 18% and the inhibition at 16 µg/mL is 29%.
As to `[Cu+2].[OH-].[OH-]` [Cu(OH)2, copper hydroxide, reference compound], the “Observed activity (%)” value in the assay on Phytophthora infestans [4] came out at 11%; in the assay on Phytophthora infestans [3] it was 2%.
For `CCNc1nc(CC)c(C(=O)NC(C#N)c2cccs2)s1` (centres unmarked) [ethaboxam, N-(cyano-2-thienylmethyl)-4-ethyl-2-(ethylamino)-5-thiazolcarboxamide], the inhibition at 0.25 µg/mL in the assay with Plasmopara viticola [5] amounted to 33%.
Turning to `CCCCCCCCc1c(C)nc2ncnn2c1N` [Compound I-25, 5-methyl-6-octyl-[1,2,4]triazolo[1,5-a]pyrimidin-7-ylamine], the pest or weed control at 16 ppm in the assay on Phytophthora infestans [1] came to 0%. Besides, in the assay with Phytophthora infestans [3], the inhibition at 0.25 µg/mL turned out to be 5%, the inhibition at 1 µg/mL amounted to 13% and the inhibition at […] worked out at 4%. In addition, in the assay on Botrytis cinerea, the inhibition at 0.25 µg/mL was 5%. For the same molecule, the inhibition at 1 µg/mL in the assay on Pyricularia oryzae was found to be 24%.
For the molecule `CC1(c2ccc(Oc3ccccc3)cc2)OC(=O)N(Nc2ccccc2)C1=O` (racemic) [famoxadone, (RS)-3-anilino-5-methyl-5-(4-phenoxyphenyl)-1,3-oxazolidine-2,4-dione], in the assay on Plasmopara viticola [5], the inhibition at 4 µg/mL amounted to 0%.
For the molecule “phosphorous acid disodium salt [phosphorous acid disodium salt (Na2HPO3), reference compound]”, the “Observed activity (%)” value with Phytophthora infestans [4] was 33%; in the assay on Phytophthora infestans [3], 6%.
For the molecule `CCCCCCCCc1c(CCC)nc2ncnn2c1N` [Compound I-180, 6-octyl-5-propyl-[1,2,4]triazolo[1,5-a]pyrimidin-7-ylamine], in the assay with Phytophthora infestans [1], the pest or weed control at 16 ppm came out at 0% and the pest or weed control at 63 ppm is 33%. For the same molecule, in the assay on Phytophthora infestans [3], the inhibition at 0.016 µg/mL turned out to be 0%, the inhibition at 0.25 µg/mL came out at 8%, the inhibition at 1 µg/mL was determined as 17% and the inhibition at […] is 2%. In addition, in the assay with Botrytis cinerea (Conc. 0.016 mg/l), the inhibition at 0.016 µg/mL came to 3%. Moreover, in the assay on Botrytis cinerea, the inhibition at 0.25 µg/mL was 13%. In the assay on Pyricularia oryzae, the inhibition at 1 µg/mL worked out at 15%.
Consider `CCNC(=O)NC(=O)C(C#N)=NOC` [cymoxanil, 1-(2-cyano-2-methoxyiminoacetyl)-3-ethylurea, reference compound], for which the figures for the inhibition at 16 µg/mL in the assay on Plasmopara viticola [2] and with Pyricularia oryzae were 33% and 12%, respectively.
Consider `Cc1nc2ncnn2c(N)c1CCC(C)CC(C)(C)C` (centres unmarked) [Compound I-28, 5-methyl-6-(3,5,5-trimethylhexyl)-[1,2,4]triazolo[1,5-a]pyrimidin-7-ylamine], for which the pest or weed control at 63 ppm in the assay with Phytophthora infestans [1] worked out at 44%. Besides, in the assay with Phytophthora infestans [3], the inhibition at 0.016 µg/mL turned out to be 0%, the inhibition at 0.25 µg/mL turned out to be 14%, the inhibition at 1 µg/mL amounted to 24% and the inhibition at […] worked out at 0%. In addition, in the assay on Botrytis cinerea (Conc. 4 mg/l), the inhibition at 4 µg/mL stood at 0%. Also, in the assay with Pyricularia oryzae, the inhibition at 0.25 µg/mL amounted to 12% and the inhibition at 1 µg/mL is 13%.
As for `N#Cc1sc2c(=O)c3ccccc3c(=O)c=2sc1C#N` [dithianon, 5,10-dioxo-5,10-dihydronaphtho[2,3-b][1,4]dithiin-2,3-dicarbonitrile], in the assay with Plasmopara viticola [2], the inhibition at 16 µg/mL came out at 0%.
As to `CCCCCCCCc1c(CC)nc2ncnn2c1N` [Compound I-110, 5-ethyl-6-octyl-[1,2,4]triazolo[1,5-a]pyrimidin-7-ylamine], in the assay with Phytophthora infestans [4] (Phytophthora infestans, read-out: Observed activity (%)), the inhibition at 4 µg/mL was 11%. Besides, in the assay on Plasmopara viticola [5], the inhibition at 0.25 µg/mL was 0% and the inhibition at 4 µg/mL came to 0%. Besides, the inhibition at 4 µg/mL in the assay with Plasmopara viticola [2] amounted to 0%. Also, in the assay on Phytophthora infestans [3], the inhibition at 0.016 µg/mL was found to be 1%, the inhibition at 0.25 µg/mL was found to be 5%, the inhibition at 1 µg/mL stood at 59% and the inhibition at […] came to 3%. For the same molecule, in the assay on Botrytis cinerea, the inhibition at […] came to 8% and the inhibition at 0.25 µg/mL worked out at 18%. Besides, the inhibition at 16 µg/mL with Pyricularia oryzae turned out to be 8%.
Take `COC(=O)CC(NC(=O)C(NC(=O)OC(C)C)C(C)C)c1ccc(Cl)cc1` (centres unmarked) [[E-7], methyl 3-(4-chlorophenyl)-3-(2-isopropoxycarbonylamino-3-methyl-butyrylamino)propanoate]: the inhibition at 0.25 µg/mL in the assay on Plasmopara viticola [5] is 0%.
Consider `CCCCCCCCc1c(CC)nc2nc(N)nn2c1N` [Compound I-120, 5-ethyl-6-octyl-[1,2,4]triazolo[1,5-a]pyrimidine-2,7-diamine], for which the pest or weed control at 16 ppm in the assay with Phytophthora infestans [1] was 33%. In addition, in the assay on Phytophthora infestans [3], the inhibition at 0.016 µg/mL was 0%, the inhibition at 0.25 µg/mL worked out at 6% and the inhibition at […] was 2%. Further, in the assay with Botrytis cinerea, the inhibition at […] stood at 0%, the inhibition at 1 µg/mL is 9% and the inhibition at 16 µg/mL was 15%. Besides, in the assay on Pyricularia oryzae, the inhibition at 16 µg/mL was 25%. Further, the inhibition at […] in the assay with Septoria tritici (Zymoseptoria tritici, 0.063 mg/l, read-out: Observed activity (%)) stood at 0%.
`CCC(=O)C1=C([O-])CC(C(=O)[O-])CC1=O.[Ca+2]` (centres unmarked) [prohexadione-Ca, reference compound]: the “Observed activity (%)” value in the assay on Septoria tritici (0.25 mg/l) is 5%.
`CCCCCCCCc1c(COC)nc2ncnn2c1N` [Compound I-245, 5-methoxymethyl-6-octyl-[1,2,4]triazolo[1,5-a]pyrimidin-7-ylamine]: the pest or weed control at 4 ppm with Phytophthora infestans [1] is 0%. In the assay on Phytophthora infestans [3], the inhibition at 0.016 µg/mL came out at 0%, the inhibition at 0.25 µg/mL came out at 12% and the inhibition at […] was determined as 0%. In addition, the inhibition at 0.25 µg/mL in the assay on Botrytis cinerea was 0%. In the assay on Pyricularia oryzae, the inhibition at 0.25 µg/mL turned out to be 10% and the inhibition at 16 µg/mL was 23%.
Consider “manganese ethylenebis(dithiocarbanate) zinc complex [mancozeb]”, for which the “Observed activity (%)” value in the assay on Phytophthora infestans [4] stood at 11%.
Regarding `Cc1c(Br)c2ccc(F)cc2n1S(=O)(=O)c1ncn(S(=O)(=O)N(C)C)n1` [amidosulbrom, N,N-dimethyl-3-(3-bromo-6-fluoro-2-methylindole-1-sulfonyl)-[1,2,4]triazole-1-sulfonamide], in the assay with Plasmopara viticola [5], the inhibition at 4 µg/mL stood at 22%.
Same read-out and setting: for `Cc1ccc(C(C)NC(=O)[C@@H](NC(=O)OC(C)C)C(C)C)cc1` (stereo partly drawn) [iprovalicarb, isopropyl [(1S)-2-methyl-1-(1-p-tolylethylcarbamoyl)propyl]carbamate] the value was 0%.
For the molecule `COC(=O)NCc1cc(C(C)=NOCc2cccc(C)c2)ccc1Cl` [[B-6], methyl (2-chloro-5-[1-(3-methylbenzyloxyimino)-ethyl]benzyl)carbamate, reference compound], the inhibition at 16 µg/mL with Plasmopara viticola [5] stood at 0%; in the assay on Botrytis cinerea it was 53%. Further, the inhibition at 0.25 µg/mL in the assay on Phytophthora infestans [3] was determined as 10%.
